Test results taken from article doi:10.1101/2021.09.30.462449v1 (biorxiv, 2021).

What was measured:
Assay in all cases: biochemical
Conditions in all cases: read-out: % inhibition mean (Lanthascreen)
ACVR1 (ALK2) R206H = ACVR1 (ALK2) R206H (Homo sapiens, UniProt Q04771, R206H)
ADCK3 = ADCK3 (Homo sapiens, UniProt Q8NI60)
ALK C1156Y = ALK C1156Y (Homo sapiens, UniProt Q9UM73, C1156Y)
AXL R499C = AXL R499C (Homo sapiens, UniProt P30530, R499C)
BRSK2 = BRSK2 (Homo sapiens, UniProt Q8IWQ3)
CAMKK1 (CAMKKA) = CAMKK1 (CAMKKA) (Homo sapiens, UniProt Q8N5S9)
CASK = CASK (Homo sapiens, UniProt O14936)
CDK13/cyclin K = CDK13/cyclin K (Homo sapiens, UniProt Q14004)
CDK2/cyclin O = CDK2/cyclin O (Homo sapiens, UniProt P24941)
CDK9 (Inactive) = CDK9 (Inactive) (Homo sapiens, UniProt P50750)
FGFR3 G697C = FGFR3 G697C (Homo sapiens, UniProt P22607, G697C)
HUNK = HUNK (Homo sapiens, UniProt P57058)
IRAK3 = IRAK3 (Homo sapiens, UniProt Q9Y616)
MAP2K4 (MEK4) = MAP2K4 (MEK4) (Homo sapiens, UniProt P45985)
MAP2K6 (MKK6) = MAP2K6 (MKK6) (Homo sapiens, UniProt P52564)
MAPK10 (JNK3) = MAPK10 (JNK3) (Homo sapiens, UniProt P53779)
MAPK15 (ERK7) = MAPK15 (ERK7) (Homo sapiens, UniProt Q8TD08)
MASTL = MASTL (Homo sapiens, UniProt Q96GX5)
MLK4 = MLK4 (Homo sapiens, UniProt Q5TCX8)
MYLK4 = MYLK4 (Homo sapiens, UniProt Q86YV6)
MYO3A (MYO3 alpha) = MYO3A (MYO3 alpha) (Homo sapiens, UniProt Q8NEV4)
RET G691S = RET G691S (Homo sapiens, UniProt P07949, G691S)
RET M918T = RET M918T (Homo sapiens, UniProt P07949, M918T)
STK38L (NDR2) = STK38L (NDR2) (Homo sapiens, UniProt Q9Y2H1)
STK39 (STLK3) = STK39 (STLK3) (Homo sapiens, UniProt Q9UEW8)
TGFBR1 (ALK5) = TGFBR1 (ALK5) (Homo sapiens, UniProt P36897)
TLK1 = TLK1 (Homo sapiens, UniProt Q9UKI8)
VRK2 = VRK2 (Homo sapiens, UniProt Q86Y07)
WNK2 = WNK2 (Homo sapiens, UniProt Q9Y3S1)

STK38L (NDR2), sequence (Q9Y2H1 whole entry): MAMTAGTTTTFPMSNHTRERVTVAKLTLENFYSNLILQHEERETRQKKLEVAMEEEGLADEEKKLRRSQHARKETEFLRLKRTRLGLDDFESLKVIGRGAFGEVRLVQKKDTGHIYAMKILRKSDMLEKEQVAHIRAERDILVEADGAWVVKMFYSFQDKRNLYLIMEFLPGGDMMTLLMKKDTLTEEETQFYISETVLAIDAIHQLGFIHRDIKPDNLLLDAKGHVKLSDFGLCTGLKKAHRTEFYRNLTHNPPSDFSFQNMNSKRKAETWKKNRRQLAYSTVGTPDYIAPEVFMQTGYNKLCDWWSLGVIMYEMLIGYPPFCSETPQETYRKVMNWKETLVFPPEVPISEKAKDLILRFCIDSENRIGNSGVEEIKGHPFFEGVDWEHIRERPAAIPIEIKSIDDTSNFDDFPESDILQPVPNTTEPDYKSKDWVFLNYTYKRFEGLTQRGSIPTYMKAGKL
ADCK3, sequence (Q8NI60 whole entry): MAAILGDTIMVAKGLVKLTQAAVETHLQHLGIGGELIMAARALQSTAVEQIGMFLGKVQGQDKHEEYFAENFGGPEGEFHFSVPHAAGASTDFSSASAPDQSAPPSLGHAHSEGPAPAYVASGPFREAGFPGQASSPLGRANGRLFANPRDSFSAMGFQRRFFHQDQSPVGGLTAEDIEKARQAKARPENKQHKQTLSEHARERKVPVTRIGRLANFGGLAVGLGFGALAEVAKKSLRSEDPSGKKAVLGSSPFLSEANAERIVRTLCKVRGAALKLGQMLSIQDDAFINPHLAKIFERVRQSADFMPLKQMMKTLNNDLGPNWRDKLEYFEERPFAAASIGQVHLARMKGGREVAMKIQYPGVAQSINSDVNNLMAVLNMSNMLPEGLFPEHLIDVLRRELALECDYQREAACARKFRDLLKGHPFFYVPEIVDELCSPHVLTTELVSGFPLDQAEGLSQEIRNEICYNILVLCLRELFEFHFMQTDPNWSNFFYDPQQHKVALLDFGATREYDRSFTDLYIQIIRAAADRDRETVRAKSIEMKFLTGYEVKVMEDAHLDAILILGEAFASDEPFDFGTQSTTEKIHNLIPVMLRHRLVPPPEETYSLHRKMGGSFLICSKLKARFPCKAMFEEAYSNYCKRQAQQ
VRK2, sequence (Q86Y07 whole entry): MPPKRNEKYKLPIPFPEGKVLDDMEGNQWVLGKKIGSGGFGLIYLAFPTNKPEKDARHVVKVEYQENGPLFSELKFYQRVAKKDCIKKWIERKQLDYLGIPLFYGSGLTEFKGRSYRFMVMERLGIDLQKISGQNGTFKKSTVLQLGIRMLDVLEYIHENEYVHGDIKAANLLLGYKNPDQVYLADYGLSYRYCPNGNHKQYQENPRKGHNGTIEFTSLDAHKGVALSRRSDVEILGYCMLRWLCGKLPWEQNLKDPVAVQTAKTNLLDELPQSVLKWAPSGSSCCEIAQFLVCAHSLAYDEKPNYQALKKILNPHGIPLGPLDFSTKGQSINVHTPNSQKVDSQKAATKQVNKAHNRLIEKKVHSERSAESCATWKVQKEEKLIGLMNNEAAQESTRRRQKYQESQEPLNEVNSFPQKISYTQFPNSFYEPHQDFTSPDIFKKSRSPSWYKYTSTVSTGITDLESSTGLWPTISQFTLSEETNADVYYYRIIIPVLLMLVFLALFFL
TLK1, sequence (Q9UKI8 whole entry): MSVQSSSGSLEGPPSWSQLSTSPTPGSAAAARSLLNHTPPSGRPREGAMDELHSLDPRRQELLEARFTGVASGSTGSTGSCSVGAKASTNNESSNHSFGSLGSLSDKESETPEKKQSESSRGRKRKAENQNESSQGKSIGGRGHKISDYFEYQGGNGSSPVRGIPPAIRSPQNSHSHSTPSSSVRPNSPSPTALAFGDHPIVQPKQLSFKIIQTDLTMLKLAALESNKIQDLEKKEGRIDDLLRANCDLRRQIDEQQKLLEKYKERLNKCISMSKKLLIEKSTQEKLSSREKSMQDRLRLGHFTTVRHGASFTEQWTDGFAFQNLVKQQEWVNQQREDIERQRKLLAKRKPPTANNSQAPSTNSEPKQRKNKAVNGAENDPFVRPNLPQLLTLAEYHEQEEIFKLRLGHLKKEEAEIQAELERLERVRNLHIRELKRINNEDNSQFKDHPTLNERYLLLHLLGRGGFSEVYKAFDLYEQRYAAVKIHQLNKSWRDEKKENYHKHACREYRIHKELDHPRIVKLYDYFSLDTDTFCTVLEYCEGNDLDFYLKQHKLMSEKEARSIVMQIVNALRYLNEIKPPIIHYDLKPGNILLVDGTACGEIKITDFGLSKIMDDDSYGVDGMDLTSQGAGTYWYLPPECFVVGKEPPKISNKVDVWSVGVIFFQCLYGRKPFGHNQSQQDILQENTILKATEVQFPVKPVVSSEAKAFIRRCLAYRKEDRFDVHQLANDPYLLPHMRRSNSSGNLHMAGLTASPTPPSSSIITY
CASK, sequence (O14936 whole entry): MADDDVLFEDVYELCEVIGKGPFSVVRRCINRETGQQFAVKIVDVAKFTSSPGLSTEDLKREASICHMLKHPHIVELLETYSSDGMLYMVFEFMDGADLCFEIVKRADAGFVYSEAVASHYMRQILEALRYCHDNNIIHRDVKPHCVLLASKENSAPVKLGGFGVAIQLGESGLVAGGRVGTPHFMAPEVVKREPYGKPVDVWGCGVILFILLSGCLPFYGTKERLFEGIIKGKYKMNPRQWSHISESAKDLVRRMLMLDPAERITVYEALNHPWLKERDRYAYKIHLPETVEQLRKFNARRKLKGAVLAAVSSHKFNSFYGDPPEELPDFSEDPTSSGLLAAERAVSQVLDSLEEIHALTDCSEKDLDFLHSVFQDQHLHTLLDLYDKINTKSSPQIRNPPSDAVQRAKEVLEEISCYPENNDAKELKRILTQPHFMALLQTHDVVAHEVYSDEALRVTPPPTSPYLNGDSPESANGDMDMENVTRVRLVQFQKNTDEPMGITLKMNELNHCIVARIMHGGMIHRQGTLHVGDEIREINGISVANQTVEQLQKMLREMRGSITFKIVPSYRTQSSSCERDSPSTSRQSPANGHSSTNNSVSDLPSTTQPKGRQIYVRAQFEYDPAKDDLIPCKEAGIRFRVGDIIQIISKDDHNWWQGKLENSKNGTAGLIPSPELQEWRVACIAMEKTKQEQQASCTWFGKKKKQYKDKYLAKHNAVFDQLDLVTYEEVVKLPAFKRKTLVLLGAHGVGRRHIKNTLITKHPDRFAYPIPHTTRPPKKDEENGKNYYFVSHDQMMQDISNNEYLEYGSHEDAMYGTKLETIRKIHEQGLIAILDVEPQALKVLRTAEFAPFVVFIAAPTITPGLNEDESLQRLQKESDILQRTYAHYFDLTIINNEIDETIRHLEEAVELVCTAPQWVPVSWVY
IRAK3, sequence (Q9Y616 whole entry): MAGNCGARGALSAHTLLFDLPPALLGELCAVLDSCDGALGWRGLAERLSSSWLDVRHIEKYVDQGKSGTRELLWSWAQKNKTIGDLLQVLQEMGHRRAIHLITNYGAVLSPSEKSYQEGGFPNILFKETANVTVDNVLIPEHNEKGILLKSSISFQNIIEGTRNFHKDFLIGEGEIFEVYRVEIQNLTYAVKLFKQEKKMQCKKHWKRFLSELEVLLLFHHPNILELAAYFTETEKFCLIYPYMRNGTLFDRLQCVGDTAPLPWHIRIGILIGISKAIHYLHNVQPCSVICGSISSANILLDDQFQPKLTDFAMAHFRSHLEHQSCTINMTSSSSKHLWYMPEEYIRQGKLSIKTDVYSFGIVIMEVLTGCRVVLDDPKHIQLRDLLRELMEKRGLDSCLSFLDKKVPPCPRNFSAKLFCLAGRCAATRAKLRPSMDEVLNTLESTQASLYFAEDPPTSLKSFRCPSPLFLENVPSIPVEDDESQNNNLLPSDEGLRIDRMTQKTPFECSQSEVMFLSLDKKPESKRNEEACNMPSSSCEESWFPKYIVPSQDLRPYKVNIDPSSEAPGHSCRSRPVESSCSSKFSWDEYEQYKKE
TGFBR1 (ALK5), sequence (P36897 whole entry): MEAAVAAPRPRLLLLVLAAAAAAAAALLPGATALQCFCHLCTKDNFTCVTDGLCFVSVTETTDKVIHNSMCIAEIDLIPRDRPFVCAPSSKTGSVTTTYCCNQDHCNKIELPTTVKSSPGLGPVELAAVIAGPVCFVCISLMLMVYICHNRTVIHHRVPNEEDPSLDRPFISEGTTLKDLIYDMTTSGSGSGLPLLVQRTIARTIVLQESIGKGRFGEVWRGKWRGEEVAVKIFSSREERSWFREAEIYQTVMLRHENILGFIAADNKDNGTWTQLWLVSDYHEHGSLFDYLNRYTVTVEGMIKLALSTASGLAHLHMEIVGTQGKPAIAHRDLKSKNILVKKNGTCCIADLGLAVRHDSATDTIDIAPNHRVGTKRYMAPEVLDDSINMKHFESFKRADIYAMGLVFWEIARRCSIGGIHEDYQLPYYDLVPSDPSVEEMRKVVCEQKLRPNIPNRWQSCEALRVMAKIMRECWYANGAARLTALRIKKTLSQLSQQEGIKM
CAMKK1 (CAMKKA), sequence (Q8N5S9 whole entry): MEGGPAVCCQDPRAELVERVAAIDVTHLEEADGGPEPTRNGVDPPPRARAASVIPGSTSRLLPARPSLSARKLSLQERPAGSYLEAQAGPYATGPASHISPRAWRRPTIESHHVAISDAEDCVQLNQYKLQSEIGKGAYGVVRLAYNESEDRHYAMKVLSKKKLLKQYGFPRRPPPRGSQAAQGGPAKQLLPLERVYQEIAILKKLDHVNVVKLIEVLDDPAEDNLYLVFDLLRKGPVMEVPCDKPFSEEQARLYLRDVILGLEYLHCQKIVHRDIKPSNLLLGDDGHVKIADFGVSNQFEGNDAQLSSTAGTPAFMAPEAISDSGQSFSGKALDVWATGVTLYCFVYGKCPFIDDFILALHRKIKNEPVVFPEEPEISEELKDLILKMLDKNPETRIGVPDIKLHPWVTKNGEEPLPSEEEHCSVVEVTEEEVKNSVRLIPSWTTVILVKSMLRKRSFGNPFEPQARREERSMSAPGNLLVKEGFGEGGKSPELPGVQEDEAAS

Compound COc1ccc2nc3cc(Cl)ccc3c(Nc3cc(CN4CCCC4)c(O)c(CN4CCCC4)c3)c2n1 [Pyronaridine, 4-[(7-Chloro-2-methoxybenzo[b][1,5]naphthyridin-10-yl)amino]-2,6-bis(1-pyrrolidinylmethyl)phenol phosphate (1:4)] has an inhibition at 1 µM (ACVR1 (ALK2) R206H) of 2%, an inhibition at 1 µM (ADCK3) of -16% and an inhibition at 1 µM (ALK C1156Y) of -2%. The inhibition at 1 µM (AXL R499C) was 3%, the inhibition at 1 µM (BRSK2) was 4% and the inhibition at 1 µM (CAMKK1 (CAMKKA)) was 15%. For the same compound, the inhibition at 1 µM (CASK) was 2%, the inhibition at 1 µM (CDK13/cyclin K) was -13% and the inhibition at 1 µM (CDK2/cyclin O) was 2%. For the same compound, the inhibition at 1 µM (CDK9 (Inactive)) was -10%, the inhibition at 1 µM (FGFR3 G697C) was 7% and the inhibition at 1 µM (HUNK) was -1%. For the same compound, the inhibition at 1 µM (IRAK3) was -5%, the inhibition at 1 µM (MAP2K4 (MEK4)) was 1% and the inhibition at 1 µM (MAP2K6 (MKK6)) was 9%. For the same compound, the inhibition at 1 µM (MAPK10 (JNK3)) was 5%, the inhibition at 1 µM (MAPK15 (ERK7)) was -11% and the inhibition at 1 µM (MASTL) was 3%. For the same compound, the inhibition at 1 µM (MLK4) was 8%, the inhibition at 1 µM (MYLK4) was -9% and the inhibition at 1 µM (MYO3A (MYO3 alpha)) was -6%. It also gave an inhibition at 1 µM (RET G691S) of -3%, an inhibition at 1 µM (RET M918T) of -3% and an inhibition at 1 µM (STK38L (NDR2)) of -7%. For the same compound, the inhibition at 1 µM (STK39 (STLK3)) was -19%, the inhibition at 1 µM (TGFBR1 (ALK5)) was -4% and the inhibition at 1 µM (TLK1) was 12%. It also gave an inhibition at 1 µM (VRK2) of -4% and an inhibition at 1 µM (WNK2) of 4%.
